Results as given in ChEMBL document CHEMBL5291721, “A preclinical secondary pharmacology resource illuminates target-adverse drug reaction associations of marketed drugs” (Nat Commun, 2023).

Tests used:
[1] = target: Acetylcholinesterase (Homo sapiens, UniProt P22303); assay type: functional
[2] = target: Sodium-dependent serotonin transporter (Homo sapiens, UniProt P31645)
[3] = target: T1, 5-hydroxytryptamine receptor 1A (Homo sapiens, UniProt P08908)
T1 sequence (P08908 whole entry): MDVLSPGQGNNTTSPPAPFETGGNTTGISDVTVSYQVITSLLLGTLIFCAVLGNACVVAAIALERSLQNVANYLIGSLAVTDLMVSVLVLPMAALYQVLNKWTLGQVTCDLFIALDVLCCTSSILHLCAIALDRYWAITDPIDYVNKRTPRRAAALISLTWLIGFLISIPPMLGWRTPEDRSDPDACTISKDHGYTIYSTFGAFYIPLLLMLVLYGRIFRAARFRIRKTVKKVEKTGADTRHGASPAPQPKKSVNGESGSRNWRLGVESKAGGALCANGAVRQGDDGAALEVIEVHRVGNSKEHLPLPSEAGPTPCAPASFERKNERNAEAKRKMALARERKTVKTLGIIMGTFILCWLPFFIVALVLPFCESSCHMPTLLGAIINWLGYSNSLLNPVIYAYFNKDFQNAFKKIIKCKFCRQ

[4] = target: Sodium-dependent dopamine transporter (Homo sapiens, UniProt Q01959)
[5] = target: Mu-type opioid receptor (Homo sapiens, UniProt P35372)
[6] = target: Sodium-dependent noradrenaline transporter (Homo sapiens, UniProt P23975)
[7] = target: Histamine H3 receptor (Homo sapiens, UniProt Q9Y5N1)
[8] = target: Gamma-aminobutyric acid receptor subunit alpha-1 (Rattus norvegicus, UniProt P62813)
[9] = target: T2, Alpha-1A adrenergic receptor (Homo sapiens, UniProt P35348); assay type: functional, cell-based
T2 sequence (P35348 whole entry): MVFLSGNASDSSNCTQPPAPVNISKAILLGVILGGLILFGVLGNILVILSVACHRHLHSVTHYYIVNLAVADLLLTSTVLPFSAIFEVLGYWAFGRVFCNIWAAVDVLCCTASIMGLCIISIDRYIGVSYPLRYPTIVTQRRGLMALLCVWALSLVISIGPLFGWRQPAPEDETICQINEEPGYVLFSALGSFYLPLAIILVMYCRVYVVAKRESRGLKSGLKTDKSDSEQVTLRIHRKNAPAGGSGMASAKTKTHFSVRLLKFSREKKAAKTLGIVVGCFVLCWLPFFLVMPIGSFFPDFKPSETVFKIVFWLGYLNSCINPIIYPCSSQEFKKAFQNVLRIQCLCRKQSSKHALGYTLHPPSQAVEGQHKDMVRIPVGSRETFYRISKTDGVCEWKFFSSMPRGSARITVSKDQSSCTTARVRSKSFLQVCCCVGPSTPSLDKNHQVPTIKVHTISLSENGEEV

[10] = target: T3, Muscarinic acetylcholine receptor M2 (Homo sapiens, UniProt P08172)
T3 sequence (P08172 whole entry): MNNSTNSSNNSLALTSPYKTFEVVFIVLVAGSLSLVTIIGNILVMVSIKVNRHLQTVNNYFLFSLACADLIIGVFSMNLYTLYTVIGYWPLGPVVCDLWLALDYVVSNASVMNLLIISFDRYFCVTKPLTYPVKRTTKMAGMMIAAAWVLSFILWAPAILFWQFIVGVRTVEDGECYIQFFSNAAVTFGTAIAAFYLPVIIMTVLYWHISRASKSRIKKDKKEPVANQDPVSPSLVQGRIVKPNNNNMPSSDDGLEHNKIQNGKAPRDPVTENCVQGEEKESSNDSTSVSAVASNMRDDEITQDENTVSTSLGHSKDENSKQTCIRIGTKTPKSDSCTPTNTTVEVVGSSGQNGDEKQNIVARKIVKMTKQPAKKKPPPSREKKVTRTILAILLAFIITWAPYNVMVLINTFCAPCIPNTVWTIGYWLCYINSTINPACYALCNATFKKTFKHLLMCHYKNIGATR

[11] = target: T4, Amine oxidase [flavin-containing] A (Homo sapiens, UniProt P21397); assay type: functional
T4 sequence (P21397 whole entry): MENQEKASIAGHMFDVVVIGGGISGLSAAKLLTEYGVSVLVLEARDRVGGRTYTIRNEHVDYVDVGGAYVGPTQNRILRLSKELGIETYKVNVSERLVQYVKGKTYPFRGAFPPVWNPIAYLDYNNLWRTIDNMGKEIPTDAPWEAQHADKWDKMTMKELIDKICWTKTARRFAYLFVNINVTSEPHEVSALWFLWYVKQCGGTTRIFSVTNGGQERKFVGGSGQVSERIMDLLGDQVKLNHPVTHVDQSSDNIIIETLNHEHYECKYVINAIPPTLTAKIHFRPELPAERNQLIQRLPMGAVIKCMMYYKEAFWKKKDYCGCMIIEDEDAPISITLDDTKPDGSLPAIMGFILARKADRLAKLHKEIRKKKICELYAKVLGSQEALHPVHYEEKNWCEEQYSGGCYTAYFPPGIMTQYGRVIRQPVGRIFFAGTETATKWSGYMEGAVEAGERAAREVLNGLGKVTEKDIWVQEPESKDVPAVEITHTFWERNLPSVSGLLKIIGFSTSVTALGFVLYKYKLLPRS

[12] = target: D(3) dopamine receptor (Homo sapiens, UniProt P35462)
[13] = target: T5, Alpha-2A adrenergic receptor (Homo sapiens, UniProt P08913)
T5 sequence (P08913 whole entry): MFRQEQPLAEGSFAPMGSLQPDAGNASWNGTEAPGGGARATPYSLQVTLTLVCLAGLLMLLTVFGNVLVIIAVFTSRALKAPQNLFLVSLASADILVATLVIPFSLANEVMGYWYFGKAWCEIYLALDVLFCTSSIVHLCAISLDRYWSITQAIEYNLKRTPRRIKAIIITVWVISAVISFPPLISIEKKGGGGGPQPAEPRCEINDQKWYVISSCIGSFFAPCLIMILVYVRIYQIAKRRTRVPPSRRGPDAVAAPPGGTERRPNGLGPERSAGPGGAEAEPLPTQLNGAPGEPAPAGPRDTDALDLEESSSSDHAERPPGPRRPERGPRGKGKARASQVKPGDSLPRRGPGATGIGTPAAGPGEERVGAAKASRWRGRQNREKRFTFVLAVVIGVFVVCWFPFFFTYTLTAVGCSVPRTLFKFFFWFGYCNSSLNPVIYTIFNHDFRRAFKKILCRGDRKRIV

[14] = target: 5-hydroxytryptamine receptor 2B (Homo sapiens, UniProt P41595); assay type: functional, cell-based
[15] = target: D(1A) dopamine receptor (Homo sapiens, UniProt P21728)
[16] = target: T6, D(4) dopamine receptor (Homo sapiens, UniProt P21917)
T6 sequence (P21917 whole entry): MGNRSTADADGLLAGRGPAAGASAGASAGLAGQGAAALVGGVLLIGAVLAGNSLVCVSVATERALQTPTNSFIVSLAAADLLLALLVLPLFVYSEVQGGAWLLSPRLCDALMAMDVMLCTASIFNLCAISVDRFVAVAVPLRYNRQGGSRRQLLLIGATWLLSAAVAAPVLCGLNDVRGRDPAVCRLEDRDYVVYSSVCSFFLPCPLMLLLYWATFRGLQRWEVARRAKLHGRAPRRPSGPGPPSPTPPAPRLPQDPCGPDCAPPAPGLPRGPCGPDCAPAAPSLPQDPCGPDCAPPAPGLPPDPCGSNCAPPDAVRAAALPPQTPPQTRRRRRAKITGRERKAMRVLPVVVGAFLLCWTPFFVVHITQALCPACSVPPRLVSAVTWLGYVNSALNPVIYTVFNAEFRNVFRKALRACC

Measured: AC50
Also: assay procedure not described here.

Sequence of Acetylcholinesterase (P22303 whole entry): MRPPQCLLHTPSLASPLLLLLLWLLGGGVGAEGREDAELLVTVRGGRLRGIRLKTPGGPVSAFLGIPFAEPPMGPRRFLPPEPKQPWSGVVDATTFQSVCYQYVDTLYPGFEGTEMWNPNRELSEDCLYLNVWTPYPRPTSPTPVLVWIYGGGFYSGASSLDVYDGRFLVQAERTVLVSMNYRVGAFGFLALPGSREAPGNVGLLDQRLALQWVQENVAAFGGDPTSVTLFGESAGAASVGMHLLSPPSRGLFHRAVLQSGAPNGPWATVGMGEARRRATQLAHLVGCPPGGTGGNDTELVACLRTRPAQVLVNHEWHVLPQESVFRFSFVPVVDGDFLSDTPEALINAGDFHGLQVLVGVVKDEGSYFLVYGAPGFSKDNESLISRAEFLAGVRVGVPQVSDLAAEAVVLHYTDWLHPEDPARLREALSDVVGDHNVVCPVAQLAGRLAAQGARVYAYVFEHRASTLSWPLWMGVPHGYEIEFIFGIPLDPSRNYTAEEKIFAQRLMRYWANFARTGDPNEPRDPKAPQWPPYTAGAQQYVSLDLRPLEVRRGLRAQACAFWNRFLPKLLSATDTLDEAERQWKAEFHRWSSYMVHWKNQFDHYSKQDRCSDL
Sequence of Gamma-aminobutyric acid receptor subunit alpha-1 (P62813 whole entry): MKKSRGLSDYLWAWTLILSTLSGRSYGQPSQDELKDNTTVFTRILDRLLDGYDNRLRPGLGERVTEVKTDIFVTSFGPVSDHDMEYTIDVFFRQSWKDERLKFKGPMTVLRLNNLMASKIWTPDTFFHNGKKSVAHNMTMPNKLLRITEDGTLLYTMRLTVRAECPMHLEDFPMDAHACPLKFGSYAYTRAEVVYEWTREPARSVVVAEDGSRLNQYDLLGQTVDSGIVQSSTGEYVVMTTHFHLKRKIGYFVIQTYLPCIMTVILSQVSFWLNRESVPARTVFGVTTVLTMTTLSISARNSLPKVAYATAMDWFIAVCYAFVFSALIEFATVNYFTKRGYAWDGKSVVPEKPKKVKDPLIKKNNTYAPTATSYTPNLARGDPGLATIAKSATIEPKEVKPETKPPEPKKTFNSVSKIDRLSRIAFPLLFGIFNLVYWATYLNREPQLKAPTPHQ
Sequence of D(3) dopamine receptor (P35462 whole entry): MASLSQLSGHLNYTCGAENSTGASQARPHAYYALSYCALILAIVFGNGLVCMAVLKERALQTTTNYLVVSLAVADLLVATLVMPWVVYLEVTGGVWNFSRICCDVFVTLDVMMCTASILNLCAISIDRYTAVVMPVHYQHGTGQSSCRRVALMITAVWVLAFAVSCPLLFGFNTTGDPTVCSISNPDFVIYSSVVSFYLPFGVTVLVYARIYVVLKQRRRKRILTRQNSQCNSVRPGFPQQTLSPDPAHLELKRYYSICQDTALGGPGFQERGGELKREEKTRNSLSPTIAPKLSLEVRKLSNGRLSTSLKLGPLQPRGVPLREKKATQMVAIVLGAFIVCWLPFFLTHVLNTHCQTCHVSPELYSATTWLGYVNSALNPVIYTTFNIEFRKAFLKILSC
Sequence of Mu-type opioid receptor (P35372 whole entry): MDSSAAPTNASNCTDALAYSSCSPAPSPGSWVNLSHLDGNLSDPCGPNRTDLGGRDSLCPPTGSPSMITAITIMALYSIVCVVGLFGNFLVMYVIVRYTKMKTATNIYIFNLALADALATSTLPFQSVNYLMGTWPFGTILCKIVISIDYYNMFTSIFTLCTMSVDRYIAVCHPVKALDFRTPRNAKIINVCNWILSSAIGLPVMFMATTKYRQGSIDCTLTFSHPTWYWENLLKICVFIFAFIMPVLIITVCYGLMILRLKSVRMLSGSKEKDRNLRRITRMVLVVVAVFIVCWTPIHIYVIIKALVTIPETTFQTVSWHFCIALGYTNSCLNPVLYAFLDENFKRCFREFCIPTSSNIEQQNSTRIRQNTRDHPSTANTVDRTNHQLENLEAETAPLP
Sequence of Histamine H3 receptor (Q9Y5N1 whole entry): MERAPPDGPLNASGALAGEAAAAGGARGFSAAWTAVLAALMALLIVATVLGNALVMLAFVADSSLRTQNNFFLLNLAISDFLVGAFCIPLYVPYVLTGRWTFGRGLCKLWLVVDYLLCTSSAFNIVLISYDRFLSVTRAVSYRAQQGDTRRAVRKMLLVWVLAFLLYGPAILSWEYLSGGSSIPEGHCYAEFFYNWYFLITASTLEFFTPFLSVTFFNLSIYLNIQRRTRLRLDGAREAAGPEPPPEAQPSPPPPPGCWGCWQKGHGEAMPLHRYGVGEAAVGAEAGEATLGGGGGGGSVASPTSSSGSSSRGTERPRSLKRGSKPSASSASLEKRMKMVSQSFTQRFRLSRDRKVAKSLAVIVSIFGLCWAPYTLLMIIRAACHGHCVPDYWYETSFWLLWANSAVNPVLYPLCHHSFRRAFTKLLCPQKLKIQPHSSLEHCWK
Sequence of Sodium-dependent serotonin transporter (P31645 whole entry): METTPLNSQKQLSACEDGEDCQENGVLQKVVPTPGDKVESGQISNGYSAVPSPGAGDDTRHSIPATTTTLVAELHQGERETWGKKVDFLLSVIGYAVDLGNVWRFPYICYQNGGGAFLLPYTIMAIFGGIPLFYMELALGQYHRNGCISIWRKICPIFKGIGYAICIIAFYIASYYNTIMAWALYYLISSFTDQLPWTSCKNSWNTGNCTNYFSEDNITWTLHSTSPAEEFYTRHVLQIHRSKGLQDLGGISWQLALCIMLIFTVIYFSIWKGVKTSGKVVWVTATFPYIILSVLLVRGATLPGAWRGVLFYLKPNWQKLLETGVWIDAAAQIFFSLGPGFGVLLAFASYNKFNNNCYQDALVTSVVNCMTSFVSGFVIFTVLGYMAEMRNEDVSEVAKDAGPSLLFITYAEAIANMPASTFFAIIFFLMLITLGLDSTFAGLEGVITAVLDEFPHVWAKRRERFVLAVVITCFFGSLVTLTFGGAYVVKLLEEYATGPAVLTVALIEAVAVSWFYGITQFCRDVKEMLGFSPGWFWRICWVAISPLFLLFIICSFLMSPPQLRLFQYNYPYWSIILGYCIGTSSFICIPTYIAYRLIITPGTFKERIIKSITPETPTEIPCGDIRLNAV
Sequence of 5-hydroxytryptamine receptor 2B (P41595 whole entry): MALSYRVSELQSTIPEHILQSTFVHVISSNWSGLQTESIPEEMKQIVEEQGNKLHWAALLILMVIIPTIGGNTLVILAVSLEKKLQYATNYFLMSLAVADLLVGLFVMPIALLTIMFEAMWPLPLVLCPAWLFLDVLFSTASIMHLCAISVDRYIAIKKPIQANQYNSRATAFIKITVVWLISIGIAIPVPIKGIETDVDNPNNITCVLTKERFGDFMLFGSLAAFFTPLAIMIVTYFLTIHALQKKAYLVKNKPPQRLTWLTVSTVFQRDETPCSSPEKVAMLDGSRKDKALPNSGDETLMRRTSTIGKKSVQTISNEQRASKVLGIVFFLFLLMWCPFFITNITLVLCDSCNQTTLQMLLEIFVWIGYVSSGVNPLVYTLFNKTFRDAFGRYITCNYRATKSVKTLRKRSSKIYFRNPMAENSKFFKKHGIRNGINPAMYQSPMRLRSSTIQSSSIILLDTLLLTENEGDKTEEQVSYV
Sequence of Sodium-dependent dopamine transporter (Q01959 whole entry): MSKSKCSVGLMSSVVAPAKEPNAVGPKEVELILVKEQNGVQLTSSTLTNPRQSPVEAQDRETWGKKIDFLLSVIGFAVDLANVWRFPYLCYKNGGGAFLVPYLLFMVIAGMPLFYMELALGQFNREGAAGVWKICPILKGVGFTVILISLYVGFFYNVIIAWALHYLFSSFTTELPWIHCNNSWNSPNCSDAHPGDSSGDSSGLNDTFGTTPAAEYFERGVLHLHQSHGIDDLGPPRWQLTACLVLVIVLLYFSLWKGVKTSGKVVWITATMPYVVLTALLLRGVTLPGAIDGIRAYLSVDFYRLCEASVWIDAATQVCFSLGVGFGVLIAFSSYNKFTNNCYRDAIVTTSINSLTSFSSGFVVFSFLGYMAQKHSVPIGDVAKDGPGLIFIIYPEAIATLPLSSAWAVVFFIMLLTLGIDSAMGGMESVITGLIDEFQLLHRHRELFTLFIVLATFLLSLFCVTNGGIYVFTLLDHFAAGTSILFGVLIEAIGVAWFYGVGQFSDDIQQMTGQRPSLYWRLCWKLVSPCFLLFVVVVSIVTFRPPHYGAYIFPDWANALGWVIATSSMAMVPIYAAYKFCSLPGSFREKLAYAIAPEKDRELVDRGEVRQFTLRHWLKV
Sequence of Sodium-dependent noradrenaline transporter (P23975 whole entry): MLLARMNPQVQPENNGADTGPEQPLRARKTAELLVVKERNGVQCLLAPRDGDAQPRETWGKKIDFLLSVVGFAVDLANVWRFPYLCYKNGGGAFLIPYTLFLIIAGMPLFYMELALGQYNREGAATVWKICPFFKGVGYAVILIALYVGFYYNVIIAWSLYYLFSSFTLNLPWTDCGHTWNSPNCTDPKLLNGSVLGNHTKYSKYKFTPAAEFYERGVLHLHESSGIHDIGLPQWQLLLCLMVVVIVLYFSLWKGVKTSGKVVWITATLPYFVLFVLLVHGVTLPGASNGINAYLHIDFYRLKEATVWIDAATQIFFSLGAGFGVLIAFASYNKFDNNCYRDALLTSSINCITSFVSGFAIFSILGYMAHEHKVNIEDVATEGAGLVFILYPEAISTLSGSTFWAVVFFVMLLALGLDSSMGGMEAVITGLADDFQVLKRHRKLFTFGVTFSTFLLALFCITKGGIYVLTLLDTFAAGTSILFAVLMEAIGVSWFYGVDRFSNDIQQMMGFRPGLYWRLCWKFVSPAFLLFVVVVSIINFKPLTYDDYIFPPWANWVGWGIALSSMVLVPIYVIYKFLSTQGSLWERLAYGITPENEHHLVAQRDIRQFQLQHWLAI

CC(C)n1c(/C=C/C(O)CC(O)CC(=O)O)c(-c2ccc(F)cc2)c2ccccc21 (stereo unspecified) [FLUVASTATIN]
> 30 µM: [1]

CN1CCN(CC(=O)N2c3ccccc3C(=O)Nc3cccnc32)CC1 [PIRENZEPINE]
> 30 µM: [2] | [1]

CN1CCCN=C1/C=C/c1cccs1
10.9 µM: [1]

CC[C@@]1(O)C[C@H](O[C@H]2C[C@H](N(C)C)[C@H](O[C@H]3C[C@H](O)[C@H](O[C@H]4CCC(=O)[C@H](C)O4)[C@H](C)O3)[C@H](C)O2)c2c(cc3c(c2O)C(=O)c2c(O)cccc2C3=O)[C@H]1C(=O)OC [ACLARUBICIN]
not listed: [2] | [16]
> 30 µM: all other assays above

O=c1[nH]c2ccccc2n1C1CCN(CCCC(c2ccc(F)cc2)c2ccc(F)cc2)CC1 [PIMOZIDE]
0.0728 µM: [16]

CCOC(=O)C1=C(COCCN)NC(C)=C(C(=O)OC)C1c1ccccc1Cl (stereo unspecified) [AMLODIPINE]
> 30 µM: [1]

CN/C(=N/CCSCc1nc[nH]c1C)NC#N [CIMETIDINE]
> 30 µM: [1]
